Experimental data as given in US20080051429A1, “USE OF 4-AMINO-PIPERIDINES FOR TREATING SLEEP DISORDERS” (priority 2006, published 2008).
Structures can show the parent of a compound that is named as a salt. Where two headings read alike, the source gives them in different places.

Target: T1, 5-HT2A receptor (Homo sapiens, UniProt P28223)
T1 construct: expressed in transfected cells; host or cells: NIH3T3 cells, pSI expression vector
Assay: R-SAT functional receptor assay
Format: cell-based
Settings: for Emax: 120 h; for Efficacy (average): percent maximal repression compared to ritanserin
Method: The functional receptor assay, Receptor Selection and Amplification Technology (R-SAT), was used (with minor modifications from that previously described U.S. Pat. No. 5,707,798) to screen compounds for efficacy at the 5-HT2A receptor. Briefly, NIH3T3 cells were grown in 96 well tissue culture plates to 70-80% confluence. Cells were transfected for 12-16 hours with plasmid DNAs using superfect (Qiagen Inc.) as per manufacture's protocols. R-SAT's were generally performed with 50 ng/well of receptor and 20 ng/well of Beta-galactosidase plasmid DNA. All receptor and G-protein constructs used were in the pSI mammalian expression vector (Promega Inc) as described in U.S. Pat. No. 5,707,798. The 5HT2A receptor gene was amplified by nested PCR from brain cDNA using the oligodeoxynucleotides based on the published sequence (see Saltzman et. al. Biochem. Biophys. Res. Comm. 181:1469-78 (1991)). Large-scale transfections, cells were transfected for 12-16 hours, then trypsinized and frozen in DMSO. Frozen cells were later thawed, plated at 10,000-40,000 cells per well of a 96 well plate that contained drug. With both methods, cells were then grown in a humidified atmosphere with 5% ambient CO2 for five days. Media was then removed from the plates and marker gene activity was measured by the addition of the beta-galactosidase substrate ONPG (in PBS with 5% NP-40). The resulting colorimetric reaction was measured in a spectrophotometric plate reader (Titertek Inc.)at […]. All data were analyzed using the computer program XLFit (IDBSm). Efficacy is the percent maximal repression compared to repression by a control compound (ritanserin in the case of 5HT2A). pIC50 is the negative of the log(IC50), where IC50 is the calculated concentration in Molar that produces 50% maximal repression.
Briefly, the 5-HT2A receptor, and the alpha subunit of the guanine nucleotide binding protein Gq were transiently transfected into NIH3T3 cells and assayed using the functional receptor assay, Receptor Selection and Amplification Technology (R-SAT) essentially as disclosed in U.S. Pat. No. 5,707,798. Each compound was screened at seven serially diluted concentrations in triplicate. Data were analyzed using least squares fit analysis with GraphPad Prism (San Diego, Calif.), and are reported normalized to percent response.
R-SAT assays (as described in Example 42) were carried out with cells transfected with receptors (listed below) to determine the receptor selectivity profile for compound 26HCH16D. 5HT2A inverse agonist data (IC50 nM; % efficacy) were derived from detailed dose response curves (7 points in triplicate).
(§1) The functional receptor assay, Receptor Selection and Amplification Technology (R-SAT), was used (with minor modifications from that previously described U.S. Pat. No. 5,707,798) to screen compounds for efficacy at the 5-HT2A receptor. The RSAT assay was conducted as described herein.
as §1, with “5,707,798, which is incorporated herein by reference in its entirety)” for “5,707,798)”

[1] = read-out: Percent Efficacy, compared to ritanserin
[2] = Table 3, read-out: pIC50 (converted)
[3] = compared to ritanserin, read-out: 5HT2A % inhibition
[4] = Table 6, read-out: 5HT2A pIC50 (converted)
[5] = pIC50 (average), inverse agonist
[6] = Table 5, read-out: 5HT2A pIC50 (converted)

T1 sequence (P28223 whole entry): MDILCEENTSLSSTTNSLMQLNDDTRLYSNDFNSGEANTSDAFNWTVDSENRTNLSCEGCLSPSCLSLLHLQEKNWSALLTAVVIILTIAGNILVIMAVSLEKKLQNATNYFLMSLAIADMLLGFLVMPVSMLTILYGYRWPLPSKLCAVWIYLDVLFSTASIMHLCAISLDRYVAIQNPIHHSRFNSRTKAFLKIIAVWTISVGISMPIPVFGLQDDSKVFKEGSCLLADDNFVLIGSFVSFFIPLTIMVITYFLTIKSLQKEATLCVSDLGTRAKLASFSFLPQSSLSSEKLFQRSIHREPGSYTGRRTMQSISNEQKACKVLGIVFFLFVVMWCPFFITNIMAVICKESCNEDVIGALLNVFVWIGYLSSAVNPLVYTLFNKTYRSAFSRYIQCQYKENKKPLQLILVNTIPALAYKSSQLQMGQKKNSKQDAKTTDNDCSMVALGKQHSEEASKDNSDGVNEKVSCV

Cc1ccc(CN(C(=O)Cc2ccc(OC(C)C)cc2)C2CCN(C)CC2)cc1 [Example 58AKU-6, 2-(4-i-Propoxyphenyl)-N-(4-methylbenzyl)-N-(1-methylpiperidin-4-yl)acetamide]
Emax [1]: 101% | IC50 [2]: 0.158 nM

CCCOc1ccc(CC(=O)N(CCc2ccc(F)cc2)C2CCN(CCCN3C(=O)OC[C@@H]3C(C)C)CC2)cc1 [Example 117NLS03-B, N-[2-(4-Fluorophenyl)ethyl]-N-{1-[3-(4-(S)-isopropyl-2-oxo-oxazolidin-3-yl)propyl]piperidin-4-yl}-2-(4-propoxyphenyl)acetamide, oxalate]
IC50 (5HT2A pIC50, Table 5): 3.98 nM | Emax (read-out: 5HT2A % INH): 85%

CC(C)COc1ccc(CN2C(=O)OC3(CCN(C)CC3)[C@@H]2Cc2ccc(F)cc2)cc1 (single isomer, unassigned) [Example 78NLS59, 4-(4-fluorobenzyl)-3-(4-isobutoxybenzyl)-8-methyl-1-oxa-3,8-diaza-spiro[4.5]decan-2-one, hydrochloride]
Emax (read-out: 5HT2A % inhibition, compared to ritanserin): 98% | enantiomer activity at the 5-HT2A receptor (in words): eutomer

CC[C@H]1COC(=O)N1CCCN1CCC(N(Cc2ccc(F)cc2)C(=O)Cc2ccc(OCC(C)C)cc2)CC1 [Example 118AF16-80, N-(4-Fluorobenzyl)-2-(4-isobutoxyphenyl)-N-{1-[3-((S)-4-ethyl-2-oxo-oxazolidin-3-yl)-propyl]piperidin-4-yl}acetamide, oxalate]
IC50 (5HT2A pIC50, Table 5): 0.794 nM | Emax (read-out: 5HT2A % INH): 103%

COc1ccc(CC(=O)N(Cc2ccc(C)cc2)C2CCN(Cc3ccccc3)CC2)cc1 [Example 26HCH17, N-((4-Methylphenyl)methyl)-N-(1-(phenylmethyl)piperidin-4-yl)-4-methoxyphenylacetamide hydrochloride]
Emax (read-out: Percent Efficacy): 94% | IC50 (pIC50, Table 3): 5.01 nM

COc1ccc(CCN(C(=O)Cc2ccc(OC)cc2)C2CCN(C)CC2)cc1 [Example 50ELH95B, 2-(4-Methoxyphenyl)-N-[2-(4-methoxyphenyl)ethyl]-N-(1-methylpiperidin-4-yl)acetamide]
Emax [1]: 119% | IC50 [2]: 10 nM

CC(C)COc1ccc(CN2C(=O)OC3(CCN(CCC4OCCO4)CC3)C2Cc2ccc(F)cc2)cc1 (stereo not shown) [Example 69NLS79-II, 8-(2-[1,3]Dioxolan-2-yl-ethyl)-4-(4-fluorobenzyl)-3-(4-isobutoxybenzyl)-1-oxa-3,8-diaza-spiro[4.5]decan-2-one, hydrochloride]
Emax [3]: 101% | IC50 [4]: 7.94 nM

CC(C)COc1ccc(CN2C(=O)OC3(CCN(CC4CC4)CC3)C2Cc2ccc(F)cc2)cc1 (stereo not shown) [Example 38-PH16-HCl, 8-Cyclopropylmethyl-4-(4-fluorobenzyl)-3-(4-isobutoxybenzyl)-1-oxa-3,8-diaza-spiro[4.5]decan-2-one, hydrochloride]
Emax [3]: 95% | IC50 [4]: 7.94 nM

COc1ccc(CC(=O)N(Cc2ccc(C)cc2)C2CCN(CCC(C)(C)C)CC2)cc1 [Example 26HCH79-5, N-(1-(3,3-Dimethylbutyl)piperidin-4-yl)-N-((4-methylphenyl)methyl)-4-methoxyphenylacetamide]
Emax [1]: 94% | IC50 [2]: 6.31 nM

COc1ccc(CC(=O)N(CCc2ccc(C)cc2)C2CCN(C)CC2)cc1 [Example 50ELH68, 2-(4-Methoxyphenyl)-N-[2-(4-methylphenyl)ethyl)-N-(1-methylpiperidin-4-yl)acetamide]
Emax [1]: 96% | IC50 [2]: 3.98 nM

CCCCOc1ccc(CC(=O)N(Cc2ccc(C)cc2)C2CCN(C)CC2)cc1 [Example 58AKU-5, 2-(4-Butoxyphenyl)-N-(4-methylbenzyl)-N-(1-methylpiperidin-4-yl)acetamide]
Emax [1]: 99% | IC50 [2]: 0.316 nM

Cc1ccc(CN(C(=O)Cc2ccc(OC(F)(F)F)cc2)C2CCN(C)CC2)cc1 [Example 57MBT70-4D, N-((4-methylphenyl)methyl)-N-(1-methylpiperidin-4-yl)-2-(4-trifluoromethoxyphenyl)acetamide hydrochloride]
Emax (read-out: Percent Efficacy): 98% | IC50 [2]: 3.16 nM

CCc1ccc(CN2CCC(N(Cc3ccc(C)cc3)C(=O)NCc3ccccc3)CC2)s1 [Example 26HCH66-05, N-(1-((5-Ethylthien-2-yl)methyl)piperidin-4-yl)-N-((4-methylphenyl)methyl)-N′-phenylmethylcarbamide]
Emax (read-out: Percent Efficacy): 126% | IC50 [5]: 28.2 nM | IC50 (pIC50, Table 3): 7.94 nM | Efficacy (average): 109

CCN1CCC(N(Cc2ccc(C)cc2)C(=O)Cc2ccc(Cl)cc2)CC1 [Example 47AKU-12, 2-(4-Chlorophenyl)-N-(4-methylbenzyl)-N-(1-ethylpiperidin-4-yl)acetamide]
Emax [1]: 112% | IC50 [2]: 7.94 nM

CN1CCC2(CC1)OC(=O)N(Cc1ccc(OCC3CC3)cc1)C2Cc1ccc(F)cc1 (stereo not shown) [Example 69NLS52, 3-(4-Cyclopropylmethoxybenzyl)-4-(4-fluorobenzyl)-8-methyl-1-oxa-3,8-diaza-spiro[4.5]decan-2-one, hydrochloride]
Emax [3]: 87% | IC50 [4]: 0.251 nM

Cc1ccc(CN(C(=O)Cc2ccc(I)cc2)C2CCN(C)CC2)cc1 [Example 57MBT70-2D, N-((4-methylphenyl)methyl)-N-(1-methylpiperidin-4-yl)-2-(4-iodophenyl)acetamide hydrochloride]
Emax (read-out: Percent Efficacy): 105% | IC50 [2]: 6.31 nM

CC(C)COc1ccc(CN2C(=O)OC3(CCN(CCN4CCNC4=O)CC3)C2Cc2ccc(F)cc2)cc1 (stereo not shown) [Example 38-PH17-HCl, 4-(4-Fluorobenzyl)-3-(4-isobutoxybenzyl)-8-[2-(2-oxo-imidazolidin-1-yl)-ethyl]-1-oxa-3,8-diaza-spiro[4.5]decan-2-one, hydrochloride]
Emax [3]: 84% | IC50 [4]: 1.58 nM

COc1ccc(CC(=O)N(Cc2ccc(Cl)cc2)C2CCN(C3CCCC3)CC2)cc1 [Example 42ELH91, 2-(4-Methoxyphenyl)-N-(4-chlorbenzyl)-N-(1-cyclopentylpiperidin-4-yl)acetamide]
Percent Efficacy (compared to ritanserin): 108%

COc1ccc(CC(=O)N(CCc2cccc(Cl)c2)C2CCN(C)CC2)cc1 [Example 50ELH93E, 2-(4-Methoxyphenyl)-N-[2-(3-chlorophenyl)ethyl]-N-(1-methylpiperidin-4-yl)acetamide]
Emax [1]: 72% | IC50 [2]: 7.94 nM

Cc1ccc(CN(C(=O)Cc2ccc(Cl)cc2)C2CCN(C)CC2)cc1 [Example 47AKU-8, 2-(4-Chlorophenyl)-N-(4-methylbenzyl)-N-(1-methylpiperidin-4-yl)-acetamide]
Emax [1]: 113% | IC50 [2]: 7.94 nM

Cc1ccc(CN(C(=O)NCc2ccccc2)C2CCN(Cc3ccccc3Br)CC2)cc1 [Example 26HCH66-03, N-(1-((2-Bromophenyl)methyl)piperidin-4-yl)-N-((4-methylphenyl)methyl)-N′-phenylmethylcarbamide]
IC50 [5]: 38 nM | Efficacy (average): 76

CC(C)COc1ccc(CNC(=O)N(Cc2ccc(F)cc2)C2CCN(CCC3OCCCO3)CC2)cc1 [Example 117NLS25, N-{1-[2-(1,3-Dioxan-2-yl)ethyl]piperidin-4-yl}-N-(4-fluorobenzyl)-N′-(4-isobutoxybenzyl)carbamide, tartrate]
Emax (read-out: 5HT2A % INH): 94% | IC50 [6]: 1.26 nM

CC(C)COc1ccc(CN2C(=O)OC3(CCN(C(C)C)CC3)C2Cc2ccc(F)cc2)cc1 (stereo not shown) [Example 69NLS85, 4-(4-Fluorobenzyl)-3-(4-isobutoxybenzyl)-8-isopropyl-1-oxa-3,8-diaza-spiro[4.5]decan-2-one, hydrochloride]
Emax [3]: 95% | IC50 [4]: 0.794 nM

CC(C)COc1ccc(CC(=O)N(Cc2ccc(F)cc2)C2CCN(CCCN3CC(C)OC(C)C3)CC2)cc1 (stereo not shown) [Example 103NLS69-A, N-{1-[3-(2,6-Dimethylmorpholin-4-yl)propyl]piperidin-4-yl}-N-(4-fluorobenzyl)-2-(4-isobutoxyphenyl)acetamide, dioxalate]
Emax (read-out: 5HT2A % INH): 96% | IC50 [6]: 2 nM
